Patent EP4737451A1 (Dong Wha Pharm. Co., Ltd., priority 2023, dated 2025)

How the values were obtained:
IRAK4 enzyme = target: T1, IRAK4 enzyme (Homo sapiens, UniProt Q9NWZ3); test: IRAK4 enzyme activity inhibition (ADP-Glo, Promega kit); format: biochemical
T1 construct: purchased Promega V2621
T1 sequence (Q9NWZ3 1-460): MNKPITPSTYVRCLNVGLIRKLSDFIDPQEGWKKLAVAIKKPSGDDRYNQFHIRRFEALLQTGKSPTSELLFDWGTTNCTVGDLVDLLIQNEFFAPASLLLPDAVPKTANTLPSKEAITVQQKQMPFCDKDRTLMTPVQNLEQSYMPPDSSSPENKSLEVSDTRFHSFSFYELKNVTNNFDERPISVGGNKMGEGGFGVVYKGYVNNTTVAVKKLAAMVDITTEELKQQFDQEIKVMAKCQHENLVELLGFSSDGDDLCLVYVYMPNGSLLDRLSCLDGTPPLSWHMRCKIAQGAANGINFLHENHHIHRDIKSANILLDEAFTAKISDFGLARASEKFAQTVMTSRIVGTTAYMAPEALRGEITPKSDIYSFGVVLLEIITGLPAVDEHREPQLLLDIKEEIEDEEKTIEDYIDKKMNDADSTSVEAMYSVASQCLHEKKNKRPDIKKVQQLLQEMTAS
Experimental: An experiment on IRAK4 enzyme activity inhibition of the compound of the present invention was conducted.
An IRAK4 enzyme kit (purchased from Promega, product number: V2621) was used to dilute a mixed solution between 0.1 µg/µL of myelin basic protein (MBP), which is an enzyme-reactive substrate, and 1.25 mM of ATP with a reaction buffer (40 mM Tris-HCl, pH 7.5; 20 mM MgCl2; 0.1 mg/mL BSA; 50 µM DTT) according to the instructions, so as to dispense 2 µL in a 384-well white plate, and then to add 1 µL of a test compound, which was gradient diluted starting from 1 mM, to a 384-well plate. After that, an IRAK4 enzyme was diluted with a reaction buffer to a final concentration of 5 ng/µL, then 2 µL/well was dispensed into a 384-well white plate and reacted at 37°C for 60 minutes. After completion of a reaction, an ADP-GloTM enzyme test kit (purchased from Promega, product number: V9102) was used to add 5 µL of ADP-Glo reaction reagent and cause a reaction at 37°C for 40 minutes, and then 10 µL of enzyme chromogenic reagent was added again to measure a luminescence signal using equipment for measuring absorbance (THECAN, Microplate Reader). An activity inhibition rate was calculated from a measured value, and a 50% inhibition concentration (IC50 value) was analyzed through a non-linear regression analysis based on the % inhibition for each concentration of the test compound, and is shown in Table 2.

hPBMC TNFα = test: Cell-based inflammatory cytokine secretion inhibition (LPS-stimulated PBMC, hTNF-α ELISA); conditions: human PBMC, LPS 1 µg/mL, hTNF-α by ELISA, mean; read-out: hPBMC TNFα IC50_mean
Experimental: An experiment on inflammatory cytokine secretion inhibition of the compound of the present invention was conducted.
PBMC (LONZA, peripheral blood mononuclear cells) isolated from human whole blood was dispensed into a 96-well plate at a density of 1.0 X 10^5 cells/well, and the cells were stabilized for 20 hours. After that, a test compound diluted at each of four concentrations was added to a Roswell Park Memorial Institute (RPMI) medium, reacted for one hour, treated with lipopolysaccharide (LPS) to reach a final concentration of 1 µg/mL, and further reacted for one hour. hTNF-α, which is an inflammatory cytokine, was measured by an enzyme linked immunosorbent assay using an ELISA kit from Goma Biotech. A cell supernatant, a standard drug, and an antibody were added to an ELISA-plate and reacted for four hours in total, after which the plate was washed, reacted with streptavidin-HRP for 30 minutes, and washed again. After that, a TMB substrate was added and reacted in a dark place, and when a color was sufficiently developed, a stop solution was added to stop the reaction. hTNF-α was measured by measuring absorbance at 450 nm using equipment for absorption measurement (Microplate Reader from BioTeK). An activity inhibition rate was calculated from a measured absorbance value, a % inhibition for each concentration of the test compound was calculated, a 50% inhibition concentration (IC50 value) was analyzed through a non-linear regression analysis, and the results are shown in Table 4.

IRAK1 enzyme = target: T2, IRAK1 enzyme (Homo sapiens, UniProt P51617); test: IRAK1 enzyme activity inhibition (ADP-Glo, Promega kit); format: biochemical; conditions: for inhibition at 0.1 µM: test compound 0.1 uM
T2 construct: purchased Promega VA7477
Experimental: An experiment on IRAK1 enzyme activity inhibition of the compound of the present invention was conducted.
An IRAK1 enzyme kit (purchased from Promega, product number: VA7477) was used to dilute a mixed solution between 0.1 µg/µL of protein kinase B (AKT), which is an enzyme-reactive substrate, and 1.25 mM of ATP with a reaction buffer (40 mM Tris-HCl, pH 7.5; 20 mM MgCl2; 0.1 mg/mL BSA; 50 µM DTT) according to the instructions, so as to dispense 2 µL in a 384-well white plate, and then to add 1 µL of a test compound, which was gradient diluted starting from 1 mM, to a 384-well white plate. After that, an IRAK1 enzyme was diluted with a reaction buffer to a final concentration of 5 ng/µL, then 2 µL/well was dispensed into a 384-well white plate and reacted at 37°C for 60 minutes. After completion of a reaction, an ADP-GloTM enzyme test kit (purchased from Promega, product number: V9102) was used to add 5 µL of ADP-Glo reaction reagent and cause a reaction at 37°C for 40 minutes, and then 10 µL of enzyme chromogenic reagent was added again to measure a luminescence signal using equipment for measuring absorbance (THECAN, Microplate Reader). An activity inhibition rate was calculated from a measured value, and a 50% inhibition concentration (IC50 value) was analyzed through a non-linear regression analysis based on the % inhibition for each concentration of the test compound, and is shown in Table 3.

T2 sequence (P51617 whole entry): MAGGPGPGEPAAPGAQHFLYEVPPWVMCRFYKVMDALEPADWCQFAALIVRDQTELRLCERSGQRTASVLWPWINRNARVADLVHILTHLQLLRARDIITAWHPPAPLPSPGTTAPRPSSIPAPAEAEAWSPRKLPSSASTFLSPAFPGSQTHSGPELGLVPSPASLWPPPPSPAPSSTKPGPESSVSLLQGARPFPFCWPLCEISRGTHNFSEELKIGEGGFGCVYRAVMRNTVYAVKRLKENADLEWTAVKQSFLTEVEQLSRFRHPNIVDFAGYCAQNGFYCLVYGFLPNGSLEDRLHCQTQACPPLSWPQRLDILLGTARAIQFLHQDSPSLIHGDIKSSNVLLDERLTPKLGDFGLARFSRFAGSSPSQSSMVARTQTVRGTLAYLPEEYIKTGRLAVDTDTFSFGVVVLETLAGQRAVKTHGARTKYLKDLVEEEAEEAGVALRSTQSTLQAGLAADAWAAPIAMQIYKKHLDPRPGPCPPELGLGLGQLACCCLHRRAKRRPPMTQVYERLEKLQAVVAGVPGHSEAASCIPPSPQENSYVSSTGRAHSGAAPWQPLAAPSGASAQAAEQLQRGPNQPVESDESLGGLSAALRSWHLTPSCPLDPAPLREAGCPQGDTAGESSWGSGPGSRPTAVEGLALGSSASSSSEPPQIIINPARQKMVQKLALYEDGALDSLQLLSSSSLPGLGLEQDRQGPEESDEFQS

Row | Compound | IC50 (IRAK4 enzyme) [nM] | inhibition at 0.1 µM (IRAK4 enzyme; test compound 0.1 uM) [%] | inhibition at 1 µM (IRAK4 enzyme; test compound 1 uM) [%] | IC50 (hPBMC TNFα) [nM] | inhibition at 0.1 µM (IRAK1 enzyme) [%] | IC50 (IRAK1 enzyme) [nM] | inhibition at 1 µM (IRAK1 enzyme; test compound 1 uM) [%] | IRAK4 %enzyme inhibition (0.1 uM) (IRAK4 enzyme; test compound 0.1 uM) [%] | IRAK4 %enzyme inhibition (1 uM) (IRAK4 enzyme; test compound 1 uM) [%] | IRAK1 %enzyme inhibition (1 uM) (IRAK1 enzyme; test compound 1 uM) [%]
1 | CC(C)(O)CCn1cc2cc(NC(=O)c3cncc([N+](=O)[O-])c3)c(N3CCOCC3)cc2n1 [Example 2, N-(2-(3-hydroxy-3-methylbutyl)-6-morpholino-2H-indazol-5-yl)-5-nitronicotinamide] | 56.7 | 72.7 | 86.5 | 526 | 32.1 | – | – | – | – | –
2 | CC(C)(O)CCn1cc2cc(NC(=O)c3cccc([N+](=O)[O-])c3)c(N3CCOCC3)cc2n1 [Example 3, N-(2-(3-hydroxy-3-methylbutyl)-6-morpholino-2H-indazol-5-yl)-3-nitrobenzamide] | 0.2 | 81.7 | 94.4 | 51.8 | – | 2600 | – | – | – | –
3 | CC(C)(O)CCn1cc2cc(NC(=O)c3cccc(S(N)(=O)=O)c3)c(N3CCOCC3)cc2n1 [Example 15] | 3.7 | 88.8 | 95.2 | 575 | 28.5 | – | 66.5 | – | – | –
4 | CC(C)(O)CCn1cc2cc(NC(=O)c3cccc(-c4ccn[nH]4)n3)c(N3CCOCC3)cc2n1 [Example 21, N-(2-(3-hydroxy-3-methylbutyl)-6-morpholino-2H-indazol-5-yl)-6-(1H-pyrazol-5-yl)picolinamide] | 1.5 | 89.3 | 97.9 | 11.9 | 67.2 | 70 | 82.4 | – | – | –
5 | CC(C)(O)CCn1cc2cc(NC(=O)c3ccc(N)c([N+](=O)[O-])c3)c(N3CCOCC3)cc2n1 [Example 23, 4-amino-N-(2-(3-hydroxy-3-methylbutyl)-6-morpholino-2H-indazol-5-yl)-3-nitrobenzamide] | 10.5 | 88 | – | 601 | 26 | – | 45.3 | – | – | –
6 | N-(1-(3-hydroxy-3-methylbutyl)-6-morpholino-1H-indazol-5-yl)-3-nitrobenzamide [Example 28] | – | – | – | – | – | – | – | 56.1 | 89.9 | 9.10

The next lines start with results.

Row | IC50 (IRAK4 enzyme) [nM] | inhibition at 0.1 µM (IRAK4 enzyme; test compound 0.1 uM) [%] | inhibition at 1 µM (IRAK4 enzyme; test compound 1 uM) [%] | IC50 (hPBMC TNFα) [nM] | inhibition at 0.1 µM (IRAK1 enzyme) [%] | IC50 (IRAK1 enzyme) [nM] | inhibition at 1 µM (IRAK1 enzyme; test compound 1 uM) [%] | Compound | IRAK4 %enzyme inhibition (0.1 uM) (IRAK4 enzyme; test compound 0.1 uM) [%] | IRAK4 %enzyme inhibition (1 uM) (IRAK4 enzyme; test compound 1 uM) [%] | IRAK1 %enzyme inhibition (1 uM) (IRAK1 enzyme; test compound 1 uM) [%]
7 | 0.88 | 93.3 | – | 20.4 | 54.2 | – | – | CC(C)(O)CCn1cc2cc(NC(=O)c3cccc(S(N)(=O)=O)c3)c(N3CCC(C(C)(C)O)CC3)cc2n1 [Example 29, N-(2-(3-hydroxy-3-methylbutyl)-6-(4-(2-hydroxypropan-2-yl)piperidin-1-yl)-2H-indazol-5-yl)-3-sulfamoylbenzamide] | – | – | –
8 | 2 | 87.1 | – | 113 | 17.5 | – | 52 | CC(C)(O)CCn1cc2cc(NC(=O)c3cccc([N+](=O)[O-])c3)c(N3CCC(O)CC3)cc2n1 [Example 32, N-(2-(3-hydroxy-3-methylbutyl)-6-(4-hydroxypiperidin-1-yl)-2H-indazol-5-yl)-3-nitrobenzamide] | – | – | –
9 | – | 2.7 | – | – | 13.9 | – | – | CS(=O)(=O)CCn1cc2cc(NC(=O)c3cccc(S(N)(=O)=O)c3)c(N3CCOCC3)cc2n1 [Example 53, N-(2-(2-(methylsulfonyl)ethyl)-6-morpholino-2H-indazol-5-yl)-3-sulfamoylbenzamide] | – | – | –
